In assay [1] the target is T1, human k-opioid receptor (kOR) (Homo sapiens, UniProt P41145).
T1 construct: expressed in transfected cells; host or cells: RBL cells (membrane homogenates)
The assay can be described thus: Human k-opioid (KOP) receptor (agonist radioligand [3H]U-69593) binding assay, transfected RBL cell membranes. Particulars: second value of IC50/Ki cell.

Assay [2] has as its target T2, Orexin type 1 (OX1R) receptor (Homo sapiens, UniProt O43613).
T2 construct: expressed in transfected cells; host or cells: CHO cells (G418 selection)
T2 sequence (O43613 1-425): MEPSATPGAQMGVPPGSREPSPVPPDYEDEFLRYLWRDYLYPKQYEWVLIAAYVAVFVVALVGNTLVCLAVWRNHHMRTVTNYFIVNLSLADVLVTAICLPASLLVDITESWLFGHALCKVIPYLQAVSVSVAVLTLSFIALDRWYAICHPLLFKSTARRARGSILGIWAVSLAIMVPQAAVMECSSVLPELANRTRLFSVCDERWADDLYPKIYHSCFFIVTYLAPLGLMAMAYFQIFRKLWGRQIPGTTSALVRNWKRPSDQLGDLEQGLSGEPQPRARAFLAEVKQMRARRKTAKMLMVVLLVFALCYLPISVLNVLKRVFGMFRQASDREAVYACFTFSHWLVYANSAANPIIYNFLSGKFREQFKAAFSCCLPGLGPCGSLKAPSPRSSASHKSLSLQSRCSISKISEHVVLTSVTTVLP
Kind of assay: In vitro orexin antagonism assay: intracellular calcium measurement (FLIPR), orexin-A 3 nM as agonist. The format is cell-based. Particulars: for pIC50: first value of IC50/Kb cell; for inhibition at 1 µM: read-out: OX1R, % Inh. @ 1 uM; for Kb: second value of IC50/Kb cell. In a few lines:
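CHO cells expressing the human orexin receptor were loaded with 3 μM fluo-4 AM plus 5 mM probenecid, then exposed to antagonist for 120 min before 3 nM orexin-A (final) was added on a FLIPR.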
(In general: Calcium flux is commonly read through the fluorescence of an indicator in the cells.)

The target in assay [3] is T3, human orexin-2 receptor (OX2R) (Homo sapiens, UniProt O43614).
T3 construct: expressed in transfected cells; host or cells: CHO cells (G418 selection)
T3 sequence (O43614 1-444): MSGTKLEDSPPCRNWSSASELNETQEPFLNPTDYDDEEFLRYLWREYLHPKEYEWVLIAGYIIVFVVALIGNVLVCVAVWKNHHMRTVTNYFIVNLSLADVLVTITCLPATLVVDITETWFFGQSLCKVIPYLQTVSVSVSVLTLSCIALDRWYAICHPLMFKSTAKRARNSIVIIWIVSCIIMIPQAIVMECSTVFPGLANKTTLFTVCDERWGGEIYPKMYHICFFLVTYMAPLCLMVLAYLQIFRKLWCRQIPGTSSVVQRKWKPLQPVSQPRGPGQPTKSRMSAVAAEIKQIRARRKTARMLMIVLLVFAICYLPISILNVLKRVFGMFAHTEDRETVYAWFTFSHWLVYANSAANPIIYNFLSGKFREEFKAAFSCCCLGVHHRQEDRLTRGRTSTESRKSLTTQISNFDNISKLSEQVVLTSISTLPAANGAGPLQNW
The assay is described as above. The assay is classed as cell-based. Particulars: for inhibition at 1 µM: read-out: OX2R, % Inh. @ 1 uM; for pIC50: first value of IC50/Kb cell; for Kb: second value of IC50/Kb cell. In a few lines: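 Fluorescence peak on 3 nM orexin-A challenge, read by FLIPR and compared with vehicle, yields IC50 (geometric mean when repeated; may be normalized to an on-plate reference). Antagonists were added 120 min beforehand to fluo-4-loaded recombinant CHO cells expressing human OX1R or OX2R.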

Assay [4] concerns the target T1, human k-opioid receptor (kOR). Kind of assay: Human k-opioid (KOP) receptor (agonist radioligand [3H]U-69593) binding assay, transfected RBL cell membranes. Particulars: for pIC50: first value of IC50/Ki cell; for inhibition at 1 µM: read-out: KOR % Inh. @ 1 uM. In a few lines:
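Membranes from transfected RBL cells (~80 μg protein) incubated 60 min at 22° C with 0.5 nM [3H]U-69593 in 50 mM Tris-HCl pH 7.4, 10 mM MgCl2, 1 mM EDTA. Nonspecific binding defined with 10 μM naloxone; filtration and scintillation counting. Values are percent inhibition of specific radioligand binding.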

pIC50, pKi: −log10 of the molar value.

T1 sequence (P41145 whole entry): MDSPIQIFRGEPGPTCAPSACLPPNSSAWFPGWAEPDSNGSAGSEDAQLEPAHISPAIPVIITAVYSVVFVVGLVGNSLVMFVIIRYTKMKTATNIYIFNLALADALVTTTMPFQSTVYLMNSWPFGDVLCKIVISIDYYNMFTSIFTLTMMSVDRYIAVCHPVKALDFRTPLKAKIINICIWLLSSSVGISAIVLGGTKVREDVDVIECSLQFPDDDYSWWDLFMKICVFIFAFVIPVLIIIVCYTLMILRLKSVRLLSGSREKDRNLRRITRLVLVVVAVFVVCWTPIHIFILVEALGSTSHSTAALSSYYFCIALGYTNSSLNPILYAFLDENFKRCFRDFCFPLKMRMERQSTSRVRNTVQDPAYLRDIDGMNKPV

One may read the pKi as the negative decadic logarithm of the Ki, by convention in mol/L. Higher therefore signals a small Ki. For orientation: pIC50 means the negative decadic logarithm of the IC50, by convention in mol/L. For orientation: Kb means the affinity of an antagonist, worked out from how it opposes an agonist. The compound `C[C@@H]1CCCN(C(=O)c2c(-c3ccccc3)nc3ncccn23)[C@@H]1CNc1ccc(C(F)(F)F)cn1` [Example 34] gave a pKi in assay [1] of 6.40. In assay [2], the pIC50 was 7.28, the inhibition at 1 µM came to 79.8% and the Kb came to 11 nM. For the same compound, the inhibition at 1 µM in assay [3] stood at 1.8%. In assay [4], the pIC50 is 6.14 and the inhibition at 1 µM came to 57%.

Compound `C[C@@H]1CCCN(C(=O)c2c(-c3ccc(F)cc3)nn3ccccc23)[C@@H]1CNc1ccc(C(F)(F)F)cn1` [Example 40] showed a pKi in assay [1] of 6.40. Besides, the figures for the pIC50 in assay [2] and in assay [4] were 7.54 and 6.13, respectively. The inhibition at 1 µM in assay [2] was 98.4%; in assay [3], 7.1%; in assay [4], 59%. The Kb in assay [2] is 6 nM.

In assay [1], `O=C(c1c(-c2ccc(F)cc2)nn2ccccc12)N1CCC[C@H]1Cn1ccc(-c2ccccc2)n1` [Example 44] had a pKi of 6.43. In assay [2], the pIC50 was 8.30, the inhibition at 1 µM came out at 98.8% and the Kb turned out to be 1 nM. Moreover, in assay [3], the pIC50 was 6.66, the inhibition at 1 µM is 72.3% and the Kb stood at 31 nM. In addition, in assay [4], the pIC50 is 6.16 and the inhibition at 1 µM was 55%.

`O=C(c1c(-c2ccccc2)nc2ccc(F)cn12)N1CCC[C@H]1Cn1ccc(-c2ccc(F)cc2)n1` [Example 49]: the pKi in assay [1] is 7.60. Further, in assay [2], the pIC50 is 8.05, the inhibition at 1 µM was 102% and the Kb was determined as 2 nM. In assay [3], the pIC50 is 7.28, the inhibition at 1 µM stood at 79.3% and the Kb is 7 nM. In assay [4], the pIC50 was 7.33 and the inhibition at 1 µM was determined as 92%.

Regarding `O=C(c1c(-c2ccccc2)nc2cc(F)ccn12)N1CCC[C@H]1Cn1ccc(-c2ccc(F)cc2)n1` [Example 50], the pKi in assay [1] was 6.49. For the same compound, the inhibition at 1 µM in assay [2] is 99%; in assay [3], 89%; in assay [4], 59%. Moreover, the values for the pIC50 in assay [3] and in assay [4] were 7.74 and 6.23, respectively. In addition, the Kb in assay [3] amounted to 3 nM.

Regarding `O=C(c1c(-c2ccccc2)nc2cc(C(F)(F)F)ccn12)N1CCC[C@H]1Cn1ccc(-c2ccc(F)cc2)n1` [Example 53], the negative logarithm of the Ki (pKi) in assay [1] is 7.51. In assay [2], the pIC50 was 7.68, the inhibition at 1 µM is 97.6% and the Kb stood at 4 nM. Also, in assay [3], the pIC50 was 7.48, the inhibition at 1 µM amounted to 95.5% and the Kb came to 5 nM. In assay [4], the pIC50 was 7.25 and the inhibition at 1 µM amounted to 93%.

Regarding `O=C(c1c(-c2ccccc2F)nn2ccccc12)N1CCC[C@H]1Cn1cc(-c2ccccc2)cn1` [Example 69], the pKi in assay [1] was 7.00. The results for the pIC50 in assay [2], in assay [3] and in assay [4] were 8.05, 7.64 and 6.72, respectively. In addition, the figures for the inhibition at 1 µM in assay [2], in assay [3] and in assay [4] were 100%, 86% and 76%, respectively. In addition, the results for the Kb in assay [2] and in assay [3] were 2 nM and 4 nM, respectively.

Regarding `O=C(c1c(-c2ccccc2)nc2ccc(F)cn12)N1CCC[C@H]1Cn1cc(-c2ccccc2)cn1` [Example 75], in assay [1], the pKi is 7.11. Also, in assay [2], the pIC50 was 6.80, the inhibition at 1 µM is 93% and the Kb was determined as 33 nM. Further, in assay [3], the pIC50 was 6.80, the inhibition at 1 µM worked out at 76% and the Kb came to 28 nM. In addition, in assay [4], the pIC50 was 6.85 and the inhibition at 1 µM is 86%.

In the case of `O=C(c1c(-c2ccccc2)nc2cc(C(F)(F)F)ccn12)N1CCC[C@H]1Cn1cc(-c2ccccc2)cn1` [Example 80], the pKi in assay [1] is 7.60. In assay [2], the pIC50 was 6.72, the inhibition at 1 µM is 87% and the Kb is 40 nM. Further, in assay [3], the pIC50 is 7.10, the inhibition at 1 µM stood at 78% and the Kb is 14 nM. Moreover, in assay [4], the pIC50 was 7.34 and the inhibition at 1 µM stood at 95%.
